Experimental data reported in US6875743B1, “Cell adhesion inhibitors” (Biogen, Inc., priority 1996, dated 2005).
Numbered stars: 1 amine (or outer) side, 2 acyl side, 3 side chain; on linkers, the order of the positions; unused ones are H or OH. Square brackets hold non-standard residues; d marks the D form. Peptide text beside a SMILES is read from it. * marks the point of attachment. ξ: configuration not given here. Hydrocinnamoyl = O=C(CCc1ccccc1)*; X1 = O=C(Cc1ccc(N[*:1])cc1)[*:2]; Tic = O=C(O)[CH]1Cc2ccccc2CN1; Cha = N[CH](CC1CCCCC1)C(=O)O; NMeL = CN[CH](CC(C)C)C(=O)O; Nle = CCCC[CH](N)C(=O)O; PhAc = O=C(Cc1ccccc1)*; Boc = CC(C)(C)OC(=O)*; CO = O=C([*:1])[*:2]; ξNva = CCCC(N)C(=O)O; NHPh = c1ccc(N*)cc1; X3 = Cc1cccc(N*)n1; Bn = c1ccc(C*)cc1

Target: T1, VLA4 (Homo sapiens, UniProt P05556+P13612)
T1 construct: endogenous in cells; host or cells: Ramos cells
T1 sequence (P13612 34-1032): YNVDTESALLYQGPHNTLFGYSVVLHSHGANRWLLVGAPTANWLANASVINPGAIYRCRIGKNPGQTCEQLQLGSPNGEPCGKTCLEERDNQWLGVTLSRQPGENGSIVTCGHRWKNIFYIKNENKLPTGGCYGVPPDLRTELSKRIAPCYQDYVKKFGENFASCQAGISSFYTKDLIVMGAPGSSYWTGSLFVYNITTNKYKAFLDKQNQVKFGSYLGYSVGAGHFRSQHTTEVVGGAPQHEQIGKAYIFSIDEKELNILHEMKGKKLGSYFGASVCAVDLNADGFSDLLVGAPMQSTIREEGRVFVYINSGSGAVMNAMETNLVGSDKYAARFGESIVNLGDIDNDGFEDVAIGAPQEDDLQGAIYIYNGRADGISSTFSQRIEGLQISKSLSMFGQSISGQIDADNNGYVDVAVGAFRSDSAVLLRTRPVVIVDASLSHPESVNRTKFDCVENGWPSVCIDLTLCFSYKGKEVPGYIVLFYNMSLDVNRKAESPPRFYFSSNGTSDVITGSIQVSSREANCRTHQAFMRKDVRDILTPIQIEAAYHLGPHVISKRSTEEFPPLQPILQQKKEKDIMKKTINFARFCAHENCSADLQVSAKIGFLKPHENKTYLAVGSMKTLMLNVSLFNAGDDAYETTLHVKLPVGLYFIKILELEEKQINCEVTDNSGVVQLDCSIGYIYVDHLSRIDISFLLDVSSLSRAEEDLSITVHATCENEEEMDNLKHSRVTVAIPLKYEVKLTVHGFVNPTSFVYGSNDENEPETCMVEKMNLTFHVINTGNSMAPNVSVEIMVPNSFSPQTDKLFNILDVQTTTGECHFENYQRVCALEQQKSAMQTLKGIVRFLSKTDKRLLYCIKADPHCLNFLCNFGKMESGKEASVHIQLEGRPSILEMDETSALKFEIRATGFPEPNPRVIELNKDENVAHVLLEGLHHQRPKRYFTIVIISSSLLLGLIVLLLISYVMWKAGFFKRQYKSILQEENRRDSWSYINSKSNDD
T1 sequence (P05556 21-798): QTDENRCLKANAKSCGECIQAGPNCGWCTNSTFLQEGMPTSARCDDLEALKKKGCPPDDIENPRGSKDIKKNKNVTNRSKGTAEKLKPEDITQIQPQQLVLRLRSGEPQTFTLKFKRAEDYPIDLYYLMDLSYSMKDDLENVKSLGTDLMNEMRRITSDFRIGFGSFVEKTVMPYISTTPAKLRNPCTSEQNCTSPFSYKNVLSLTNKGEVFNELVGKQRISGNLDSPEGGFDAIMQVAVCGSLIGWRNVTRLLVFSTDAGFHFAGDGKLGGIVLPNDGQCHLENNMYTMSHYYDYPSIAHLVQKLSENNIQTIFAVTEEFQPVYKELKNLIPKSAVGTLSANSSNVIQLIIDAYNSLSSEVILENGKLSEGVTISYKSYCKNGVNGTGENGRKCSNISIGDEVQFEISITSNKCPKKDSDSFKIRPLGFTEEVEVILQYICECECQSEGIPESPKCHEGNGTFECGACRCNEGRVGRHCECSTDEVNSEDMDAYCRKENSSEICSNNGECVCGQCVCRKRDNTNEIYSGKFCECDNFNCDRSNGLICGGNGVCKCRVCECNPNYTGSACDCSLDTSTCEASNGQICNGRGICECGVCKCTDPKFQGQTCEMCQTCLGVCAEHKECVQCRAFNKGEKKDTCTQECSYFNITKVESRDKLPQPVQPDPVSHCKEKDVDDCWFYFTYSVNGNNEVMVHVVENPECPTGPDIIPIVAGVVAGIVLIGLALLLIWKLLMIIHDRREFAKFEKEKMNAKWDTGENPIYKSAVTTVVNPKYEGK
Assay: Inhibition of VLA4-dependent adhesion to BSA-CS1
Type: cell-based
Conditions: binding of BCECF-labelled Ramos cells to BSA-CS1 coated wells, 2 mM MnCl2; read-out: IC50
From the text: For example, the cell adhesion inhibitory activity of these compounds may be measured by determining the concentration of inhibitor required to block the binding of VLA-4-expressing cells to fibronectin- or CS1-coated plates. In this assay microtiter wells are coated with either fibronectin (containing the CS-1 sequence) or CS-1. If CS-1 is used, it must be conjugated to a carrier protein, such as bovine serum albumin, in order to bind to the wells. Once the wells are coated, varying concentrations of the test compound are then added together with appropriately labelled, VLA-4-expressing cells. Alternatively, the test compound may be added first and allowed to incubate with the coated wells prior to the addition of the cells. The cells are allowed to incubate in the wells for at least 30 minutes. Following incubation, the wells are emptied and washed. Inhibition of binding is measured by quantitating the fluorescence or radioactivity bound to the plate for each of the various concentrations of test compound, as well as for controls containing no test compound.
VLA-4-expressing cells that may be utilized in this assay include Ramos cells, Jurkat cells, A375 melanoma cells, as well as human peripheral blood lymophocytes (PBLs). The cells used in this assay may be fluorescently or radioactively labelled.
This assay was used to assess the potency of VLA4-directed inhibitory compounds of this invention.
We dissolved BSA-SMCC (Pierce Chemical, Rockford, Ill.; Catalog #77115) in H2O at a concentration of 10 mg/mL. [SEQ ID NO:4]: […](“Cys-Tyr-CS1 peptide”), which we synthesized by conventional solid phase chemistry and purified by HPLC, was dissolved in 10 mM HEPES pH 5, 50 mM NaCl and 0.1 mM EDTA also at a concentration of 10 mg/mL. We then mixed 500 μL of BSA-SMCC, 250 μL of Cys-Tyr-CS1 peptide and 75 μL of 1 mM HEPES pH 7.5 and allowed the conjugation reaction to proceed for 30 minutes. We stopped the reaction by adding 1 μL of beta-mercaptoethanol. Samples were analyzed for cross-linking by SDS-PAGE.
We coated the wells of a Linbro titertek polystyrene 96-well flat bottom plate (Flow Laboratories, Maclean, Va.; catalog #76-231-05) with 100 μL of the above-described BSA-CS1 solution diluted to 1 μg/mL in 0.05 M NaHCO3 (15 mM NaHCO3, 35 mM Na2CO3) pH 9.2. Some wells were not coated with CS1 in order to assess non-specific cell binding (NSB). The plate was then incubated overnight at 4° C.
Following this incubation, the contents of the wells were removed by inverting and blotting the plate. All of the wells were then blocked with 100 μL of 1% BSA in PBS, 0.02% NaN3, for a minimum of one hour at room temperature.
Ramos cells are grown, maintained and labelled in RPMI 1640 culture medium containing 1% BSA. Just prior to running the assay, we added 2′,7′-bis-(2-carboxyethyl)-5 (and -6) carboxyfluorescein acetoxymethyl ester (“BCECF-AM”; Molecular Probes Inc., Eugene, Oreg.; catalog #B-1150) to a final concentration of 2 μM to a culture of Ramos cells (4×10^6 cells/mL). We incubated the cells for 20 minutes at 37° C.
Following labelling, the cells were washed twice in assay buffer (24 mM TRIS, 137 mM NaCl, 2.7 mM KCl, pH 7.4, containing 0.1% BSA and 2 mM glucose) to remove any cations originating from the culture medium. The cells were then resuspended in assay buffer to 4×10^6 cells/mL and 2 mM MnCl2 was added to upregulate VLA4 on the surface of the cells.
Immediately prior to running the assay, we removed the BSA blocking solution from the 96-well plates and washed the wells with 100 μL of assay buffer. We then added to each well 25 μL of test cell adhesion inhibitory compound at 2× the final concentration and 25 μL of the labelled Ramos cells. […] Each concentration of compound was tested in triplicate. The compound and cells are allowed to incubate for 30 minutes at room temperature.

IC50 | SMILES
> 10 µM | CC(C)C[C@H](NC(=O)C1C2CC3CC(C2)CC1C3)C(=O)N[C@@H](CC(=O)O)C(=O)N[C@H](C(=O)O)C(C)C (some centres unmarked) [Compound 398]
0.05 to 10 µM | CCCCC(NC(=O)C(NC(=O)C(CC(=O)O)NC(=O)C(CC(C)C)NC(=O)Cc1ccccc1)C(C)C)C(=O)O (centres unmarked) [Compound 43] (PhAc-LDV[Nle]-OH; configuration not given here)
0.05 to 10 µM | COC(=O)C1CCCN1C(=O)C(NC(=O)C(CC(=O)O)NC(=O)C(CC(C)C)NC(=O)Cc1ccccc1)C(C)C (centres unmarked) [Compound 35]
0.05 to 10 µM | CC(C)CC(NC(=O)Cc1ccc(NC(=O)Nc2ccccc2)cc1)C(=O)NC(CC(=O)O)C(=O)NC(C(=O)N1CCCC1C(N)=O)C(C)C (centres unmarked) [Compound 199] ({NHPh-CO}-[X1]LDVP-NH2; configuration not given here)
< 0.05 µM | Cc1ccccc1NC(=O)Nc1ccc(CC(=O)N[C@@H](CCC(N)=O)C(=O)N[C@@H](CC(=O)O)C(=O)N[C@@H](CCC(=O)O)C(N)=O)cc1 [Compound 301]
< 0.05 µM | Cc1ccccc1NC(=O)Nc1ccc(CC(=O)N[C@@H](CCC(N)=O)C(=O)N[C@@H](CC(=O)O)C(=O)N[C@@H](CC(=O)O)C(N)=O)cc1 [Compound 297]
0.05 to 10 µM | Cc1ccccc1NC(=O)Nc1ccc(CC(=O)N2CCC[C@H]2C(=O)N[C@@H](CCC(=O)O)C(=O)O)cc1 [Compound 416]
< 0.05 µM | Cc1ccccc1NC(=O)Nc1ccc(CC(=O)N2CCC[C@H]2C(=O)N[C@@H](CC(=O)O)C(=O)N[C@H](CC(C)C)C(=O)O)cc1 [Compound 411]
> 10 µM | CC(C)C[C@H](NC(=O)c1c2c(nc3ccccc13)CCCC2)C(=O)N[C@@H](CC(=O)O)C(=O)N[C@H](C(=O)O)C(C)C [Compound 391]
0.05 to 10 µM | CC(C)C[C@H](NC(=O)c1csc(-c2cccnc2)n1)C(=O)N[C@@H](CC(=O)O)C(=O)N[C@H](C(=O)O)C(C)C [Compound 375]
> 10 µM | COC(=O)C(CCSC)NC(=O)C(NC(=O)C(CC(=O)O)NC(=O)C(CC(C)C)NC(=O)OC(C)(C)C)C(C)C (centres unmarked) [Compound 167] (Boc-LDVM-OMe; configuration not given here)
< 0.05 µM | CSCC[C@H](NC(=O)Cc1ccc(NC(=O)Nc2ccccc2C)cc1)C(=O)N[C@@H](CCC(=O)O)C(=O)N[C@@H](CC(=O)O)C(N)=O [Compound 308]
< 0.05 µM | CSCC[C@H](NC(=O)Cc1ccc(NC(=O)Nc2ccccc2C)cc1)C(=O)N[C@@H](CC(=O)O)C(=O)N[C@@H](CC(=O)O)C(N)=O [Compound 219]
< 0.05 µM | Cc1ccccc1NC(=O)Nc1ccc(CC(=O)N[C@@H](CCC(=O)O)C(=O)N[C@@H](CC(=O)O)C(=O)N[C@@H](Cc2c[nH]c3ccccc23)C(N)=O)cc1 [Compound 272]
< 0.05 µM | Cc1ccccc1NC(=O)Nc1ccc(CC(=O)N2CCC[C@H]2C(=O)N[C@@H](CC(=O)O)C(=O)N[C@@H](CC(=O)O)C(N)=O)cc1 [Compound 241]
> 10 µM | CCCC(NC(=O)Cc1ccccc1)C(=O)N[C@@H](CC(=O)O)C(=O)N[C@H](C(=O)NC)C(C)C (stereo partly drawn) [Compound 49] (PhAc-[ξNva]-Asp-Val-NHMe)
< 0.05 µM | Cc1ccccc1NC(=O)Nc1ccc(CC(=O)N[C@@H](CCC(N)=O)C(=O)N[C@@H](CC(=O)O)C(=O)N[C@H](C(N)=O)C(C)C)cc1 [Compound 299]
> 10 µM | COC(=O)C[C@H](NC(=O)[C@H](CC(C)C)N(C)CCCc1ccccc1)C(=O)N[C@H](C(=O)OC)C(C)C [Compound 112]
< 0.05 µM | Cc1ccccc1NC(=O)Nc1ccc(CC(=O)N[C@@H](CC(C)C)C(=O)N[C@@H](CC(=O)O)C(=O)N[C@H](CO)C(N)=O)cc1 [Compound 240]

IC50 | SMILES
< 0.05 µM | Cc1cccc(NC(=O)Nc2ccc(CC(=O)N[C@@H](CC(C)C)C(=O)N[C@@H](CC(=O)O)C(=O)N[C@H](C(=O)N3CCC[C@H]3C(=O)O)C(C)C)cc2)n1 [Compound 346] ({X3-CO}-[X1]LDVP-OH)
0.05 to 10 µM | CC(C)C[C@H](NC(=O)Cc1ccc(NC(=O)Nc2ccccc2)cc1)C(=O)N[C@@H](CC(=O)O)C(=O)N[C@@H](C(=O)N1CCC[C@H]1C(N)=O)C(C)C [Compound 211] ({NHPh-CO}-[X1]LD[dV]P-NH2)
< 0.05 µM | Cc1ccccc1NC(=O)Nc1ccc(CC(=O)NC(CC(C)C)C(=O)NC(CC(=O)O)C(=O)NC(CO)C(N)=O)cc1 (centres unmarked) [Compound 296]
< 0.05 µM | Cc1ccccc1NC(=O)Nc1ccc(CC(=O)N[C@@H](CO)C(=O)N[C@@H](CC(=O)O)C(=O)N[C@H](CC(N)=O)C(N)=O)cc1 [Compound 282]
> 10 µM | COc1ccc2cc(C(C)C(=O)N[C@@H](CC(C)C)C(=O)N[C@@H](CC(=O)O)C(=O)N[C@H](C(=O)O)C(C)C)ccc2c1 (some centres unmarked) [Compound 394]
> 10 µM | CNC(=O)C(NC(=O)C(CC(=O)O)NC(=O)C(CC(C)C)N(C)C(=O)CCc1ccccc1)C(C)C (stereo not drawn) [Compound 184] (Hydrocinnamoyl-[NMeL]-Asp-Val-NHMe; configuration not given here)
< 0.05 µM | Cc1ccccc1NC(=O)Nc1ccc(CC(=O)N2CCC[C@H]2C(=O)N[C@@H](CC(=O)O)C(=O)N[C@H](C(N)=O)[C@@H](C)O)cc1 [Compound 246]
< 0.05 µM | Cc1ccccc1NC(=O)Nc1ccc(CC(=O)N[C@H](CC(C)C)C(=O)N[C@@H](CC(=O)O)C(=O)N[C@@H](CCC(=O)O)C(N)=O)cc1 [Compound 290]
> 10 µM | CCn1cc(C(=O)N[C@@H](CC(C)C)C(=O)N[C@@H](CC(=O)O)C(=O)N[C@H](C(=O)O)C(C)C)c(=O)c2ccc(C)nc21 [Compound 403]
> 10 µM | CC(C)C(NC(=O)C(CC(=O)O)NC(=O)C(CC1CCCCC1)NC(=O)C1Cc2ccccc2CN1)C(=O)O (centres unmarked) [Compound 86] (H-[Tic][Cha]DV-OH; configuration not given here)
< 0.05 µM | Cc1ccccc1NC(=O)Nc1ccc(CC(=O)N2CCC[C@H]2C(=O)N[C@@H](CC(=O)O)C(=O)N[C@H](CC(C)C)C(N)=O)cc1 [Compound 244]
< 0.05 µM | CSCC[C@H](NC(=O)Cc1ccc(NC(=O)Nc2ccccc2C)cc1)C(=O)N[C@@H](CC(=O)O)C(=O)N[C@@H](CC(C)C)C(N)=O [Compound 220]
> 10 µM | CC(C)CC(NC(=O)CCc1ccc(O)cc1)C(=O)NC(CC(=O)O)C(=O)NC(C(=O)N1CCCC1C(=O)O)C(C)C (centres unmarked) [Compound 38]
0.05 to 10 µM | CC(C)C[C@H](NC(=O)c1coc2c1C(=O)CCC2)C(=O)N[C@@H](CC(=O)O)C(=O)N[C@H](C(=O)O)C(C)C [Compound 371]
0.05 to 10 µM | CC(C)C[C@@H](NC(=O)Cc1ccc(NC(=O)Nc2ccccc2)cc1)C(=O)N[C@@H](CC(=O)O)C(=O)N[C@H](C(=O)N1CCC[C@H]1C(N)=O)C(C)C [Compound 209] ({NHPh-CO}-[X1][dL]DVP-NH2)
> 10 µM | CC(=O)N[C@@H](Cc1ccccc1)C(=O)N[C@@H](CC(C)C)C(=O)N[C@@H](CC(=O)O)C(=O)N[C@H](C(=O)O)C(C)C [Compound 152] (Ac-FLDV-OH)
< 0.05 µM | Cc1ccccc1NC(=O)Nc1ccc(CC(=O)N2CCC[C@H]2C(=O)N[C@@H](CC(=O)O)C(=O)N[C@H](CCC(=O)O)C(N)=O)cc1 [Compound 249]
0.05 to 10 µM | COC(=O)[C@@H](NC(=O)[C@H](CC(=O)O)NC(=O)[C@H](CC(C)C)NC(=O)Cc1ccccc1)[C@@H](C)OCc1ccccc1 [Compound 192] (PhAc-Leu-Asp-Thr(Bn)-OMe)
> 10 µM | CCCC(NC(=O)C(CC(=O)O)NC(=O)C(CC(C)C)NC(=O)c1ccc2ccccc2n1)C(=O)NC (centres unmarked) [Compound 52]
